Activity calls are given as the source filed them. The rule behind the calls is not given here.
How the values were obtained:
Histone deacetylase 4 = Histone deacetylase 4 (Homo sapiens, UniProt P56524); assay: Inhibition of HDAC4 (unknown origin)
Histone deacetylase 3 [1] = biological target: T1, Histone deacetylase 3 (Homo sapiens, UniProt O15379); assay: Mixed-type inhibition of HDAC3 (unknown origin) at 17.8 to 60 nM by Lineweaver-Burk plot analysis; conditions: dose 17.8-60 nM
Histone deacetylase 2 [2] = biological target: T2, Histone deacetylase 2 (Homo sapiens, UniProt Q92769); assay: Inhibition of HDAC2 (unknown origin)
T2 sequence (Q92769 whole entry): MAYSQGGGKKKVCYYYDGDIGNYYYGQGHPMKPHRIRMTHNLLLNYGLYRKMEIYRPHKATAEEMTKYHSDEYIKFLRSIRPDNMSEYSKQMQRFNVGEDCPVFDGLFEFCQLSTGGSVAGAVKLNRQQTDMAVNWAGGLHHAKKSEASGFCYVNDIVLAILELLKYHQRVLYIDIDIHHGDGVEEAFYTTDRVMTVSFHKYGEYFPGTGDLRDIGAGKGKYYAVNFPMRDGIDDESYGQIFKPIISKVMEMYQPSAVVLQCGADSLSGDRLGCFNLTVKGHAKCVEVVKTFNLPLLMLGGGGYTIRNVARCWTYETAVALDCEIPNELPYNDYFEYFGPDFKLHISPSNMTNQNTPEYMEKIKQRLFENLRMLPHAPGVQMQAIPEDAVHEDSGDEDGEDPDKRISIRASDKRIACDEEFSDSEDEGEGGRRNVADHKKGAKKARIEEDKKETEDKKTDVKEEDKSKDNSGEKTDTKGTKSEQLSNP

Histone deacetylase 3 [3] = biological target: T1, Histone deacetylase 3; assay: Inhibition of HDAC3 (unknown origin) preincubated for 60 mins
Histone deacetylase 7 = biological target: T3, Histone deacetylase 7 (Homo sapiens, UniProt Q8WUI4); assay: Inhibition of HDAC7 (unknown origin)
T3 sequence (Q8WUI4 whole entry): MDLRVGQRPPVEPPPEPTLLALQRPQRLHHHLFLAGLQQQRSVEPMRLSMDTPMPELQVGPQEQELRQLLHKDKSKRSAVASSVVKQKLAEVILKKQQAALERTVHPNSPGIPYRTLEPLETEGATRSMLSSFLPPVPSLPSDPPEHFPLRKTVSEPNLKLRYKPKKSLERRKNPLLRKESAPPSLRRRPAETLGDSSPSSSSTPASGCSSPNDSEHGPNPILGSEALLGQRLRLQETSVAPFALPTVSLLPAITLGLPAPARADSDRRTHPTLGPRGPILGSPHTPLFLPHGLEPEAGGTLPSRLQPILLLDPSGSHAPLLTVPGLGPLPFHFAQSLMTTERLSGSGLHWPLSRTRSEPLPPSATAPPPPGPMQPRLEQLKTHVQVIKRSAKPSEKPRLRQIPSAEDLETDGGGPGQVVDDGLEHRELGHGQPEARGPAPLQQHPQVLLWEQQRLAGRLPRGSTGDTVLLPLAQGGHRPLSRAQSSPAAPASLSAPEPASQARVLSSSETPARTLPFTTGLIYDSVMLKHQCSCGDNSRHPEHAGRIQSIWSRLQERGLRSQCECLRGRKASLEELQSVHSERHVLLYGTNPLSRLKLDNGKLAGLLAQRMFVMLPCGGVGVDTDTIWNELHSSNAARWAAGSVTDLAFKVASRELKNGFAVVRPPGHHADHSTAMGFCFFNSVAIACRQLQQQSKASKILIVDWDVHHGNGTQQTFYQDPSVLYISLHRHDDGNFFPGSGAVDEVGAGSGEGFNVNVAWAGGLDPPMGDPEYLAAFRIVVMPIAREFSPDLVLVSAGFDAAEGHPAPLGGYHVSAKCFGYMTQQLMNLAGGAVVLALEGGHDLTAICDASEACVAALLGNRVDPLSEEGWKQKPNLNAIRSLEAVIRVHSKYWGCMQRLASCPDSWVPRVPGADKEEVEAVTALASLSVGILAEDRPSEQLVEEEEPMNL

[4] = biological target: T4, Protein deacetylase HDAC6 (Homo sapiens, UniProt Q9UBN7); assay: Inhibition of HDAC6 (unknown origin)
T4 sequence (Q9UBN7 whole entry): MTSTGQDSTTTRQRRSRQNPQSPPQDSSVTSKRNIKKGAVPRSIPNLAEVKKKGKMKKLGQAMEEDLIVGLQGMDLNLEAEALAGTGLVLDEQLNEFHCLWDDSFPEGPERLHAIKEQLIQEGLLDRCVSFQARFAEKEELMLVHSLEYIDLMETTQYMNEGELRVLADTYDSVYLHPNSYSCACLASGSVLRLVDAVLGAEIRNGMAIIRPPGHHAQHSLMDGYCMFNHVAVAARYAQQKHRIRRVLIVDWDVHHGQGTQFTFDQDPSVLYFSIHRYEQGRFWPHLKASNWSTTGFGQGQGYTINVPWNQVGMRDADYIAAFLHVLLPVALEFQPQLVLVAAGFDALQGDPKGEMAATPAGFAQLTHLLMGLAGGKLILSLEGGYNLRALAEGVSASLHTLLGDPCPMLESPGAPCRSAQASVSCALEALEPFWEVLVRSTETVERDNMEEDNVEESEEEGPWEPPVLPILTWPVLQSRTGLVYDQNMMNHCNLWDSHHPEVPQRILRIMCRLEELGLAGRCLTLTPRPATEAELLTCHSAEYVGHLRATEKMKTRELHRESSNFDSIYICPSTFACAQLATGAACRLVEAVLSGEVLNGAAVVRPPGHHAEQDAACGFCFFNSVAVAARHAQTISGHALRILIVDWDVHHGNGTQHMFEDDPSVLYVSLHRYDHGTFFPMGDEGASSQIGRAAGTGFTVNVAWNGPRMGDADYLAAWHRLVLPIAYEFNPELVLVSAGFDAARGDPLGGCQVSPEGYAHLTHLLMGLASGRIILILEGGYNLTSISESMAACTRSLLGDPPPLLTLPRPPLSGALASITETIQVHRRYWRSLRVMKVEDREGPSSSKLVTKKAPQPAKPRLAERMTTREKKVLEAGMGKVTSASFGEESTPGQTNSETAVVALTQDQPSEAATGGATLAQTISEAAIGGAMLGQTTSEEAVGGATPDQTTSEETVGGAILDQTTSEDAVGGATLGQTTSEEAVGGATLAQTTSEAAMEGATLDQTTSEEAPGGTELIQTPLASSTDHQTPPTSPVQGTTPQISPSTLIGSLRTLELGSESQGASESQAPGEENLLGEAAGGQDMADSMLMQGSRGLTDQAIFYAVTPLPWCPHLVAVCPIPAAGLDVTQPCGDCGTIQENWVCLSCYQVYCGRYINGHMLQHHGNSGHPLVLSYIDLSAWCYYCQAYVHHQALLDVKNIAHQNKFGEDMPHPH

[5] = biological target: Histone deacetylase (Homo sapiens) (UniProt Q13547+O15379+Q9UBN7+Q92769+Q9UQL6+Q8WUI4+Q9BY41+Q96DB2+P56524+Q9UKV0+Q969S8); assay: Inhibition of HDAC in human MV4-11 cells assessed as histone H3 acetylation preincubated for 3 hrs followed by compound washout and measured after 6 hrs by Western blot analysis; assay type: cell-based
Histone deacetylase 1 [6] = biological target: T5, Histone deacetylase 1 (Homo sapiens, UniProt Q13547); assay: Inhibition of HDAC1 (unknown origin) preincubated for 30 mins
T5 sequence (Q13547 whole entry): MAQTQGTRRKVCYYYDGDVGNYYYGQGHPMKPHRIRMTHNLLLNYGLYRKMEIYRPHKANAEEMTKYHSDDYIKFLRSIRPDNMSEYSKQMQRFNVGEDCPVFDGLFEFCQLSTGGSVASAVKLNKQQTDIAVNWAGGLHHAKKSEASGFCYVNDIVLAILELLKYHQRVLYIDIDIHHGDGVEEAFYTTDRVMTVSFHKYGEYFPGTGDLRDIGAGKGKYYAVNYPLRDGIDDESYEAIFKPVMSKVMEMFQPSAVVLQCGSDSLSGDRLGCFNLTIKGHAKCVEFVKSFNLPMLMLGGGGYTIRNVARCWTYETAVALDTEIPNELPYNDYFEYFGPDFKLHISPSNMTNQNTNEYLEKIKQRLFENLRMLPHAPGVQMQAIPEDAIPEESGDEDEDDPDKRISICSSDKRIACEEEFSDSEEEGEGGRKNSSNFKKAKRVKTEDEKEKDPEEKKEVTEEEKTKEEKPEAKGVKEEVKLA

Histone deacetylase 2 [7] = biological target: T2, Histone deacetylase 2; assay: Inhibition of HDAC2 (unknown origin) preincubated for 90 mins
Histone deacetylase 11 = biological target: T6, Histone deacetylase 11 (Homo sapiens, UniProt Q96DB2); assay: Inhibition of HDAC11 (unknown origin)
T6 sequence (Q96DB2 whole entry): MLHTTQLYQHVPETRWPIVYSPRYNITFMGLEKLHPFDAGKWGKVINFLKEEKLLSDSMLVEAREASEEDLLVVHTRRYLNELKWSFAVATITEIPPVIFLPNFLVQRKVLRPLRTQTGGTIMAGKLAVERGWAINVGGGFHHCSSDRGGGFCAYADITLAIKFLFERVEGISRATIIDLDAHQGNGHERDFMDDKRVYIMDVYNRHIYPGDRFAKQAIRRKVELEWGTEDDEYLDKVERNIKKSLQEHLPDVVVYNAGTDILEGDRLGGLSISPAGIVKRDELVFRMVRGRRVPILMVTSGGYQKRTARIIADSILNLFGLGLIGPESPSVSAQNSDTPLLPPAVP

[8] = biological target: T7, Polyamine deacetylase HDAC10 (Homo sapiens, UniProt Q969S8); assay: Inhibition of HDAC10 (unknown origin)
T7 sequence (Q969S8 whole entry): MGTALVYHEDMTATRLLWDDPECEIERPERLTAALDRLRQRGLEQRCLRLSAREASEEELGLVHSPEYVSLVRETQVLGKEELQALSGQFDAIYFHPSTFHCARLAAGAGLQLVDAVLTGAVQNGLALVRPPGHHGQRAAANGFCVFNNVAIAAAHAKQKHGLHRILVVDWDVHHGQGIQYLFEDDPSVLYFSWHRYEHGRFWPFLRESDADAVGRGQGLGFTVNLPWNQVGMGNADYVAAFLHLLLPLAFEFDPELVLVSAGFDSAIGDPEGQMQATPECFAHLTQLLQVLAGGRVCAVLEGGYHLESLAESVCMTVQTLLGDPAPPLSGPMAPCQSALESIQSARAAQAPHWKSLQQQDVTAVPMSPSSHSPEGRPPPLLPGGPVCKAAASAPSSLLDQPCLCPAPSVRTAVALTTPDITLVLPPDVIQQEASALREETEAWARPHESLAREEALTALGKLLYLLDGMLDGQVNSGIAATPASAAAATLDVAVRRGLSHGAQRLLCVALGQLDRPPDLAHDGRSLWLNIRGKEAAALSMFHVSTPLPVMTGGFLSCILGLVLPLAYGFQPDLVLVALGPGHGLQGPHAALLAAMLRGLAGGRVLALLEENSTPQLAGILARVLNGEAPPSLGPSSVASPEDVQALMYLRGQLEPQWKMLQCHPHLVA

Histone deacetylase 3 [9] = biological target: T1, Histone deacetylase 3; assay: Inhibition of HDAC3 (unknown origin) preincubated for 5 mins
Histone deacetylase 1 [10] = biological target: T5, Histone deacetylase 1; assay: Inhibition of HDAC1 (unknown origin) preincubated for 60 mins
Histone deacetylase 3 [11] = biological target: T1, Histone deacetylase 3; assay: Inhibition of HDAC3 (unknown origin) preincubated for 90 mins
Histone deacetylase 1 [12] = biological target: T5, Histone deacetylase 1; assay: Inhibition of HDAC1 (unknown origin) preincubated for 5 mins
Histone deacetylase 2 [13] = biological target: T2, Histone deacetylase 2; assay: Inhibition of HDAC2 (unknown origin) preincubated for 30 mins
Histone deacetylase 1 [14] = biological target: T5, Histone deacetylase 1; assay: Inhibition of HDAC1 (unknown origin)
Histone deacetylase 3 [15] = biological target: T1, Histone deacetylase 3; assay: Inhibition of HDAC3 (unknown origin) preincubated for 30 mins
Histone deacetylase 5 = Histone deacetylase 5 (Homo sapiens, UniProt Q9UQL6); assay: Inhibition of HDAC5 (unknown origin)
Sequence of Histone deacetylase 5 (Q9UQL6 whole entry): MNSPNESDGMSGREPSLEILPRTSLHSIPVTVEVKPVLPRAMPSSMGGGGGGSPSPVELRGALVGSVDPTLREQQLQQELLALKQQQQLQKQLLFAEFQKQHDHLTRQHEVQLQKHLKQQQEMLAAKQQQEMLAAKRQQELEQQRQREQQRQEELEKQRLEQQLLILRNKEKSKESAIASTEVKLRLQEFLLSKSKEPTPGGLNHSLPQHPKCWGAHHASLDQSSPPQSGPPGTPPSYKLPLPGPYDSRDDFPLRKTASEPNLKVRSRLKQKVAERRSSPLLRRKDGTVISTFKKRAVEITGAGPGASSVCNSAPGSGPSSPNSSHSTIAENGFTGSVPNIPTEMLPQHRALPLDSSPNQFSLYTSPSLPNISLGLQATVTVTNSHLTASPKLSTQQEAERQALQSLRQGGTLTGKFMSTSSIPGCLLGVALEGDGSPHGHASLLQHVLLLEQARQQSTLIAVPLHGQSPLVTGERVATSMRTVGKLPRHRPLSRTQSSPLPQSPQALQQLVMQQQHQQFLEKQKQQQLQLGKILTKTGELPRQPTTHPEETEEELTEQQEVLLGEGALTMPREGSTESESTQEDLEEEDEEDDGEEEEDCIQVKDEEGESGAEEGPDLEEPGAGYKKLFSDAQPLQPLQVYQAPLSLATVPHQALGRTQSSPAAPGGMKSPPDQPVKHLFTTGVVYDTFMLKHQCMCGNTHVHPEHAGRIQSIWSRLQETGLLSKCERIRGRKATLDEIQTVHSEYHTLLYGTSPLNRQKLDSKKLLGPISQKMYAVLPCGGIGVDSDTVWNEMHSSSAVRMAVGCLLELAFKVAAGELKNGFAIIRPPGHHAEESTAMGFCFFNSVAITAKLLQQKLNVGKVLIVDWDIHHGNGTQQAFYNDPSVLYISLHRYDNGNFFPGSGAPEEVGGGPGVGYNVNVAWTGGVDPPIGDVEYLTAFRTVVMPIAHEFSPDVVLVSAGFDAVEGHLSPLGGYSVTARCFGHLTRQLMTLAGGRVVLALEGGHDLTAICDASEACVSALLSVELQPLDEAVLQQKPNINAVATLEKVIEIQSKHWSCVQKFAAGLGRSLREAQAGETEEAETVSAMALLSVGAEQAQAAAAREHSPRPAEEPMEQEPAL

MV4-11 = assay: Antiproliferative activity against human MV4-11 cells; assay type: functional, cell-based
Histone deacetylase 3 [16] = biological target: T1, Histone deacetylase 3; assay: Inhibition of HDAC3 (unknown origin)
Histone deacetylase 3 [17] = biological target: T1, Histone deacetylase 3; assay: Inhibition of HDAC3 (unknown origin) preincubated for 120 mins
Histone deacetylase 9 = Histone deacetylase 9 (Homo sapiens, UniProt Q9UKV0); assay: Inhibition of HDAC9 (unknown origin)
Sequence of Histone deacetylase 9 (Q9UKV0 whole entry): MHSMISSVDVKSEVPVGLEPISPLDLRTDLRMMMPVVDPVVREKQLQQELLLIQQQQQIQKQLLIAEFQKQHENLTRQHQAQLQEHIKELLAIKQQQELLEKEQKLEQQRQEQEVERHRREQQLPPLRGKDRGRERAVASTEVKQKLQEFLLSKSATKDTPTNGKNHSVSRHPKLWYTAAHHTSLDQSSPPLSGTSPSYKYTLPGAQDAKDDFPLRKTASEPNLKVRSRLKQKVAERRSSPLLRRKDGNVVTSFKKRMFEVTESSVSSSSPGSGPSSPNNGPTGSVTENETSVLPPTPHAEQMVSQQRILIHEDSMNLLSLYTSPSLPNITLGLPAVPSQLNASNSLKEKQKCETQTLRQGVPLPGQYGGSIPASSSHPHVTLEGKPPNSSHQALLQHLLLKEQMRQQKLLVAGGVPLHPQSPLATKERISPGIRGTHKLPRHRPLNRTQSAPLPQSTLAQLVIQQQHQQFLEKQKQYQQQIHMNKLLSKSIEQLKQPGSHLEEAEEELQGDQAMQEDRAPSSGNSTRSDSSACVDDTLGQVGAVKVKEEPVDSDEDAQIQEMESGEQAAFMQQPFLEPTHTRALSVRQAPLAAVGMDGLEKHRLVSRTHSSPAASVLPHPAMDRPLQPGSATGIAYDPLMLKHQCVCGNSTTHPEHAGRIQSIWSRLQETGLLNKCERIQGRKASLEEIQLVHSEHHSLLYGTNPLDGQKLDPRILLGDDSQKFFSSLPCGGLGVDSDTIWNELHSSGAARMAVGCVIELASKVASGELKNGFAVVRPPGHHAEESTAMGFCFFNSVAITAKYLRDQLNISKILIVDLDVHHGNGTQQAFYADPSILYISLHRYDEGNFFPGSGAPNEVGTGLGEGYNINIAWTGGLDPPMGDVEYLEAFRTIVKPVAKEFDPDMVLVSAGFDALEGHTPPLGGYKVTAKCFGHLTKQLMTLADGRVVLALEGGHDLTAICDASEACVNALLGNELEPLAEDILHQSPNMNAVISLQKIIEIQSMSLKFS

Histone deacetylase 3 [18] = biological target: T1, Histone deacetylase 3; assay: Inhibition of HDAC3 (unknown origin) at 1 uM preincubated for 1 hr followed by 100-fold dilution and subsequent substrate addition measured after 1 hr; conditions: time 2.0 hrs
Histone deacetylase 2 [19] = biological target: T2, Histone deacetylase 2; assay: Inhibition of HDAC2 (unknown origin) preincubated for 120 mins
Histone deacetylase 8 = biological target: T8, Histone deacetylase 8 (Homo sapiens, UniProt Q9BY41); assay: Inhibition of HDAC8 (unknown origin)
T8 sequence (Q9BY41 whole entry): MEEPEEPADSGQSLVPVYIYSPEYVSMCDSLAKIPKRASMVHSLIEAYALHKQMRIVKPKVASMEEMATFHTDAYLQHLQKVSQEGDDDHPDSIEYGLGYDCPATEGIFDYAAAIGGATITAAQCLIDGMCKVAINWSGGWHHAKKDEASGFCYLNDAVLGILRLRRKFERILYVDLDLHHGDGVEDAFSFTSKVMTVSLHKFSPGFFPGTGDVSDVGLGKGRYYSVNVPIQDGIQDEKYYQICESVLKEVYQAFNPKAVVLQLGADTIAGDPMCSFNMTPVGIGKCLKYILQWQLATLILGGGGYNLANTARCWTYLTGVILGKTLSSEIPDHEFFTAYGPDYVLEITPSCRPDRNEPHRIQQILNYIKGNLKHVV

Histone deacetylase 1 [20] = biological target: T5, Histone deacetylase 1; assay: Inhibition of HDAC1 (unknown origin) at 1 uM preincubated for 1 hr followed by 100-fold dilution and subsequent substrate addition measured after 1 hr; conditions: time 2.0 hrs
Histone deacetylase 2 [21] = biological target: T2, Histone deacetylase 2; assay: Mixed-type inhibition of HDAC2 (unknown origin) at 17.8 to 60 nM by Lineweaver-Burk plot analysis; conditions: dose 17.8-60 nM
Histone deacetylase 1 [22] = biological target: T5, Histone deacetylase 1; assay: Inhibition of HDAC1 (unknown origin) preincubated for 90 mins
Histone deacetylase 2 [23] = biological target: T2, Histone deacetylase 2; assay: Inhibition of HDAC2 (unknown origin) at 1 uM preincubated for 1 hr followed by 100-fold dilution and subsequent substrate addition measured after 1 hr; conditions: time 2.0 hrs
Histone deacetylase 1 [24] = biological target: T5, Histone deacetylase 1; assay: Mixed-type inhibition of HDAC1 (unknown origin) at 17.8 to 60 nM by Lineweaver-Burk plot analysis; conditions: dose 17.8-60 nM
Histone deacetylase 2 [25] = biological target: T2, Histone deacetylase 2; assay: Inhibition of HDAC2 (unknown origin) preincubated for 60 mins
Histone deacetylase 2 [26] = biological target: T2, Histone deacetylase 2; assay: Inhibition of HDAC2 (unknown origin) preincubated for 5 mins
Histone deacetylase 1 [27] = biological target: T5, Histone deacetylase 1; assay: Inhibition of HDAC1 (unknown origin) preincubated for 120 mins

T1 sequence (O15379 whole entry): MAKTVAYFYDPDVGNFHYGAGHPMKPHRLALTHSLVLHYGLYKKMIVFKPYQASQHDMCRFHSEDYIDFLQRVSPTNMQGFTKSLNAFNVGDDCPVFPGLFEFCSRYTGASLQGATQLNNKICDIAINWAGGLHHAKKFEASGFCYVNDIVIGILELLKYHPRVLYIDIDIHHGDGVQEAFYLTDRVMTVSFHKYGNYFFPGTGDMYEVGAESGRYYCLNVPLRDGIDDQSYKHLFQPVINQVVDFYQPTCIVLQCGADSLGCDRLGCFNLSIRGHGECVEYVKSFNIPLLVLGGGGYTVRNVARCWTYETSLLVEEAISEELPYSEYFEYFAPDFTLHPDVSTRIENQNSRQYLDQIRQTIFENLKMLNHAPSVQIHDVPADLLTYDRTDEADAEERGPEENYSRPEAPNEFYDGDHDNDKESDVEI
Sequence of Histone deacetylase 4 (P56524 whole entry): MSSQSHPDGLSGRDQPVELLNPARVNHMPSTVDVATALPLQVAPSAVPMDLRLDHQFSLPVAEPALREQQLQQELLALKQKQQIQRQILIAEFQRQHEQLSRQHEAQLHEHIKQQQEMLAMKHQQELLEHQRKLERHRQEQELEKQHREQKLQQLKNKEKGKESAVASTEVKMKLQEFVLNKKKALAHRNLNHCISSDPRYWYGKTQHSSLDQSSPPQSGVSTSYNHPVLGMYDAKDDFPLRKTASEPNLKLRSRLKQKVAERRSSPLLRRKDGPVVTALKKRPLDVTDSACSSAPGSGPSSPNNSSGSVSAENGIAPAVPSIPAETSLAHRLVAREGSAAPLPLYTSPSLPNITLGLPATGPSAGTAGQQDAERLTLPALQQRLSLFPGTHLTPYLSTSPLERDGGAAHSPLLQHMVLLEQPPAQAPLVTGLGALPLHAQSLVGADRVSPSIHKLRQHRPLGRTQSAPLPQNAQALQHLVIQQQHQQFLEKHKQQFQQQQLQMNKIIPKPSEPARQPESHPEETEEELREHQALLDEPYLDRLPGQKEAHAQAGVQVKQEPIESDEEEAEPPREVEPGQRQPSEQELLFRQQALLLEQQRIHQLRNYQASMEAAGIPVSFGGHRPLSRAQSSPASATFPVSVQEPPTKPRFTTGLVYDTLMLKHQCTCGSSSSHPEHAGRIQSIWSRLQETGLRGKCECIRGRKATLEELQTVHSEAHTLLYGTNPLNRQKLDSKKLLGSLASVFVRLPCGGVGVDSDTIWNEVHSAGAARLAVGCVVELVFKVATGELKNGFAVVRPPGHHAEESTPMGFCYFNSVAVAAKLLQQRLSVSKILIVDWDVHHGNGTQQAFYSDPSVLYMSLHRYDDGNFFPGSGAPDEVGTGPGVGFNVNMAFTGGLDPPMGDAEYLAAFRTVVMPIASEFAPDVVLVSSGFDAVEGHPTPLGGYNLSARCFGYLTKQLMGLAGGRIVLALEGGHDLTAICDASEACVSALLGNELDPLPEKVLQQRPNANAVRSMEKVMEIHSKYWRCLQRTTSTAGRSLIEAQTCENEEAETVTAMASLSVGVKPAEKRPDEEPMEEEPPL

IC50 (Histone deacetylase 4): > 10000 nM | inhibition (Histone deacetylase 3 [1]): Active | IC50 (Histone deacetylase 2 [2]): 125 nM | IC50 (Histone deacetylase 3 [3]): 22.9 nM | IC50 (Histone deacetylase 7): > 10000 nM | IC50 [4]: > 10000 nM | inhibition [5]: Active | IC50 (Histone deacetylase 1 [6]): 89.2 nM | IC50 (Histone deacetylase 2 [7]): 163 nM | IC50 (Histone deacetylase 11): > 10000 nM | IC50 [8]: > 10000 nM | IC50 (Histone deacetylase 3 [9]): 58.2 nM | IC50 (Histone deacetylase 1 [10]): 62.9 nM | IC50 (Histone deacetylase 3 [11]): 17.2 nM | IC50 (Histone deacetylase 1 [12]): 176 nM | IC50 (Histone deacetylase 2 [13]): 304 nM | IC50 (Histone deacetylase 1 [14]): 45.2 nM | IC50 (Histone deacetylase 3 [15]): 30.1 nM | IC50 (Histone deacetylase 5): > 10000 nM | IC50 (MV4-11): 587 nM | IC50 (Histone deacetylase 3 [16]): 20.3 nM | IC50 (Histone deacetylase 3 [17]): 17.7 nM | IC50 (Histone deacetylase 9): > 10000 nM | inhibition (Histone deacetylase 3 [18]): Active | IC50 (Histone deacetylase 2 [19]): 146 nM | IC50 (Histone deacetylase 8): > 10000 nM | inhibition (Histone deacetylase 1 [20]): Active | inhibition (Histone deacetylase 2 [21]): Active | IC50 (Histone deacetylase 1 [22]): 41.8 nM | inhibition (Histone deacetylase 2 [23]): Active | inhibition (Histone deacetylase 1 [24]): Active | IC50 (Histone deacetylase 2 [25]): 214 nM | IC50 (Histone deacetylase 2 [26]): 406 nM | IC50 (Histone deacetylase 1 [27]): 48.4 nM
Compound: CCCNNC(=O)CCCCCCC(=O)Nc1ccccc1

Reference: ChEMBL document CHEMBL5126566, “Comparison of three zinc binding groups for HDAC inhibitors - A potency, selectivity and enzymatic kinetics study” (Bioorg Med Chem Lett, 2022)
